Data from patent publication US20230303581A1, “ORALLY BIOAVAILABLE, BRAIN-PENETRANT COMPOUND WITH SELECTIVITY FOR THE CANNABINOID TYPE 2 RECEPTOR WITH POTENTIAL USE TOWARDS VISCERAL PAIN MANAGEMENT AND NEURODEGENERATIVE DISORDERS” (University of Mississippi, priority 2022, published 2023).
Where “and” joins values, the source holds several entries; their conditions need not be identical. Identical values can stand only once. Entries after “also recorded” stand apart in the source; their conditions may differ. Like-named read-outs stand apart in the source and are kept apart here.

Assays:
[1] = target: human CB1 receptors (Homo sapiens (Human), UniProt P21554); experiment: Cannabinoid receptor binding (displacement) assay, CB1; conditions: 10 μM compound
Chain of human CB1 receptors (P21554 whole entry): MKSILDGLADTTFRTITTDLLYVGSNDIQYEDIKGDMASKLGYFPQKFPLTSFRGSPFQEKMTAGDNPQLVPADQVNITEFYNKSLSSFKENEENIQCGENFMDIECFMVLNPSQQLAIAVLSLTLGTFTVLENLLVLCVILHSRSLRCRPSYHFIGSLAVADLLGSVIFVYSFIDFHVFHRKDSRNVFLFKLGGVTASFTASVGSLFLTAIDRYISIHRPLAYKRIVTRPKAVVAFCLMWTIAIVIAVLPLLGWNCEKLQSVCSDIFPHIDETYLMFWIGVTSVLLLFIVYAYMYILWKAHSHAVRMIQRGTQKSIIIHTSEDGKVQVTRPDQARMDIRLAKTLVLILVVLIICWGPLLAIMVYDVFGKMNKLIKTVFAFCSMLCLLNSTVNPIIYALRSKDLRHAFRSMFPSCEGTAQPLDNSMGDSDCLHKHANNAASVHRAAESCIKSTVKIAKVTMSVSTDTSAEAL
Procedure: (§1) The affinities of the compounds for CB1 and CB2 receptors were examined using displacement assays, as previously described. Briefly, cell membranes from CHO cells expressing human CB1 or human CB2 receptors were isolated using differential centrifugation. Test compounds reconstituted in DMSO and were incubated with the isolated membrane in binding buffer (50 mM Tris-HCl, 1 mM EDTA, 3 mM MgCl2, 5 mg/mL BSA, pH 7.4) along with 2.5 nM [^3H]CP-55,940. Total binding was assessed in the presence of equal concentration of DMSO, while non-specific binding was determined in the presence of 10 μM CP-55,940, and background binding was determined in wells lacking membrane. Following incubation at 30° C. for 60 min, the binding reactions were terminated by vacuum filtration through Whatman GF/C filters. The filters were then washed twice with ice-cold buffer (50 mM Tris-HCl, 1 mg/mL BSA). Liquid scintillation cocktail was added to each well and the total tritiated counts per minute were analyzed using a TopCount scintillation counter. Background counts were subtracted from all wells and the percent displacement from total binding was calculated.
(§2) The compounds were initially screened at 10 μM concentrations. If they produced at least ±30% displacement of the radioligand, then full competition curves were constructed. Ki values were calculated using GraphPad Prism (San Diego, CA, USA) and Kd values determined using a 1 site fit. All assays were run in technical and biological replicates so that the n=5-6. PK Evaluation in CD-1 Mice
(§3) The CB1/CB2 receptor binding activities of analogs 4a-4q were assessed via radioactivity-based competitive binding assays using [^3H]CP55,940, an extensively studied radioligand that is frequently used for cannabinoid assays. […] In preliminary screening, all 17 synthetic PBD compounds (4a-4q) were subjected to in vitro CB1 and CB2 binding assays at a single concentration of 10 μM. […] Therefore, the most promising ligands (4k and 4q) were selected for assessment in full competition curves against CB1 and CB2.

[2] = target: human CB2 receptors (Homo sapiens (Human), UniProt P34972); experiment: Cannabinoid receptor binding (displacement) assay, CB2; conditions: for Displacement of [3H]CP-55,940 from CB2: 10 μM compound
Chain of human CB2 receptors (P34972 whole entry): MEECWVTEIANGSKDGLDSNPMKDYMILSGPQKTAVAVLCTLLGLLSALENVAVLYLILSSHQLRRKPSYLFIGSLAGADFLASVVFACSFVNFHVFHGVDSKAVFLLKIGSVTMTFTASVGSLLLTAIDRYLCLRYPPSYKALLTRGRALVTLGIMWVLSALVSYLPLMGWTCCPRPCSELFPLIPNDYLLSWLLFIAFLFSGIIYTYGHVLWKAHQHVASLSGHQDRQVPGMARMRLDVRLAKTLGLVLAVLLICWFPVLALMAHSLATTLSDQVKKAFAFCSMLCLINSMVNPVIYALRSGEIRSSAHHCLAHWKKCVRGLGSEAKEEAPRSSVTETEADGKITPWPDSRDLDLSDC
Procedure: as §1, §2, §3

[3] = PK evaluation in CD-1 mice (plasma and tissue concentrations); assay type: in vivo
Procedure: The primary stock solutions of 4k and phenacetin (internal standard, IS) were prepared in methanol at a concentration of 1.0 mg/mL. Working solutions of calibration standards and quality control (QC) samples were prepared by dilution with methanol and stored at −20° C. A working stock of the IS solution (20 ng/mL) was prepared in methanol and stored at −20° C.
Chromatography was performed on an Acquity™ UPLC system (Waters Corp, Milford, MA, USA) with an autosampler temperature at 10° C. Waters Acquity UPLC® HSS C18 column (3.0×50 mm, 1.8 μm particle size) was used for chromatographic separation with linear gradient elution consisting of (A) 90% acetonitrile and (B) 10% 0.2% formic acid in Milli-Q water as mobile phases. The flow rate was set at 0.30 mL/min, and the injection volume was 2 μL.
An Acquity Tandem Quadrupole Mass Detector (Xevo TQ-S; Waters Corp, Milford, MA, USA) in positive electrospray ionization mode was used for mass spectrometric detection. For collision-induced dissociation, argon was used as collision gas. The cone voltage and collision energy were set at 60 V and 34 V for 4k and 46 V and 26 V for the IS, respectively. Quantification was performed using the monitoring of multiple reaction monitoring (MRM) of following transitions: m/z 409.0/220.9 for 4k and m/z 180.0/92.7 for IS. Retention times of 4k and IS were 2.85 and 1.81 min, respectively.
A simple protein precipitation method was followed for extraction of 4k from mice plasma. To an aliquot of 50 μL of plasma or tissue (brain, liver, or kidney) samples, IS solution (5 μL of 20 ng/mL) was added and mixed for 15 s on a cyclomixer (Thermo Scientific, Indianapolis, IN, USA). After precipitation with 200 μL of acetonitrile, the mixture was vortexed for 2 min, followed by centrifugation for 10 min at 14,000 rpm on an accuSpin Micro 17R (Fisher Scientific, Suwanee, GA, USA) at 5° C. An aliquot of ˜150 μL of clear supernatant was transferred into vials and 2 μL was injected onto LC-MS/MS system for analysis.
Male CD-1 mice (N=48) were obtained from Envigo (St. Louis, MO, USA) and maintained on a 12:12 h reversed dark/light cycle (lights off at 07:00 h) with ad libitum access to food and water. Following a ˜4 h fast, animals were randomly assigned to one of two groups. Group I and II animals (n=24/group, weight range 25-30 g) received compound 4k (5 mg/kg) orally (in the form of a solution, prepared using 10% absolute alcohol, 10% cremophor, and 80% Milli-Q water) or intravenously (i.v., using solution formulation comprising 10% absolute alcohol, 10% cremophor, and 80% normal saline), respectively. At 0.5, 1, 2, 4, 8, and 24 h post administration, animals were euthanized, blood was collected in K2. EDTA-containing polypropylene tubes and, tissues were collected (brain, liver, and kidney). Plasma was harvested by centrifuging the blood using Eppendorf 5430R Centrifuge (Germany) at 5000 rpm for 5 min and stored frozen at −80° C. until analysis.
Brain, liver, and kidney tissues were homogenized in separate 15 mL round-bottom screw-capped vials in phosphate buffered saline (5 volumes of each tissue mass) with a homogenizer (Polytron®) and stored at −80° C. until analysis. Plasma or tissue homogenates (50 μL) were spiked with IS and processed as mentioned in sample preparation section.
Plasma and tissue concentration and time data of compound 4k were analyzed by a non-compartmental method using WinNonlin Version 5.3 (Pharsight Corporation, Mountain View, CA, USA).

[4] = Stability studies under physiological pH; assay type: physicochemical; conditions: 4k compared to 4q; data not reported
[5] = system: mice; experiment: Acetic acid-induced writhing test; assay type: in vivo
Description: Acetic acid-induced writhing is widely used for assessing analgesic effects against inflammatory pain of peripheral origin.

[6] = system: mice; experiment: Conditioned place preference test; assay type: in vivo; conditions: FIG. 4
Description: Conditioned place preference testing is used to assess a compound's rewarding effects in order to gauge potential abuse liability. Mice are “conditioned” to associate distinctly lighted/colored/textured chambers with a rewarding drug (e.g., opioid) or no drug. If the mice sense a rewarding effect of the drug, they will prefer to occupy the chamber associated with that drug. FIG. 4 presents the results of a conditioned place preference test for 3 groups of mice (i.e., vehicle, oxycodone treated, and compound 4k treated).

[7] = male, CD-1, mouse, intravenous 5 mg/kg, brain
[8] = male, CD-1, mouse, intravenous 5 mg/kg, kidney
[9] = male, CD-1, mouse, intravenous 5 mg/kg, liver
[10] = male, CD-1, mouse, intravenous 5 mg/kg, plasma
[11] = male, CD-1, mouse, oral 5 mg/kg, brain
[12] = male, CD-1, mouse, oral 5 mg/kg, kidney
[13] = male, CD-1, mouse, oral 5 mg/kg, liver
[14] = male, CD-1, mouse, oral 5 mg/kg, plasma

O=C1c2ccccc2N/C(=N/N=C/c2ccc[nH]2)[C@@H]2CCCN12 [Compound 4a]
Displacement of [3H]CP-55,940 from CB1 [1]: −3.09%
Displacement of [3H]CP-55,940 from CB2 [2]: −12.50%

Cn1ccnc1/C=N/N=C1/Nc2ccccc2C(=O)N2CCC[C@@H]12 [Compound 4b]
Displacement of [3H]CP-55,940 from CB1 [1]: −13.99%
Displacement of [3H]CP-55,940 from CB2 [2]: −14.48%

Cc1ncc(/C=N/N=C2/Nc3ccccc3C(=O)N3CCC[C@@H]23)s1 [Compound 4d]
Displacement of [3H]CP-55,940 from CB1 [1]: −27.99%
Displacement of [3H]CP-55,940 from CB2 [2]: −33.65%

Cc1ncsc1/C=N/N=C1/Nc2ccccc2C(=O)N2CCC[C@@H]12 [Compound 4e]
Displacement of [3H]CP-55,940 from CB1 [1]: 21.88%
Displacement of [3H]CP-55,940 from CB2 [2]: 19.86%

Nc1ncc(/C=N/N=C2/Nc3ccccc3C(=O)N3CCC[C@@H]23)s1 [Compound 4f]
Displacement of [3H]CP-55,940 from CB1 [1]: 1.75%
Displacement of [3H]CP-55,940 from CB2 [2]: 3.72%

O=C1c2ccccc2N/C(=N/N=C/c2sc(Cl)nc2Cl)[C@@H]2CCCN12 [Compound 4g]
Displacement of [3H]CP-55,940 from CB1 [1]: 24.19%
Displacement of [3H]CP-55,940 from CB2 [2]: 29.27%

O=C1c2ccc(Cl)cc2N/C(=N/N=C/c2cc3ccccc3s2)[C@@H]2CCCN12 [Compound 4k]
Ki ([2]; CB2, full competition curves): 0.146 µM
AUC0-∞ ([3]; intravenous 5 mg/kg, brain): 5685 ng·h/g
AUC0-∞ ([3]; intravenous 5 mg/kg, kidney): 13272 ng·h/g
AUC0-∞ ([3]; intravenous 5 mg/kg, liver): 19991 ng·h/g
clearance as share of hepatic blood flow in mice ([3]; intravenous 5 mg/kg, plasma): 26%
clearance [3, 7]: 15.7 ± 2.31 mL/min/kg
half-life [3, 7]: 6.54 ± 1.38 h
clearance [3, 8]: 6.38 ± 0.49 mL/min/kg
half-life [3, 8]: 10.2 ± 0.49 h
clearance [3, 9]: 4.28 ± 0.38 mL/min/kg
half-life [3, 9]: 9.26 ± 0.67 h
Vd [3, 10]: 14.3 ± 3.11 L/kg
clearance [3, 10]: 23.5 ± 5.35 mL/min/kg
half-life [3, 10]: 6.91 ± 0.15 h
Cmax ([3]; male, CD-1, mouse, intravenous 5 mg/kg, plasma, read-out: Cmax Or C0): 4340 ng/mL
Tmax [3, 11]: 1.25 ± 0.44 h
half-life [3, 11]: 22.9 ± 3.73 h
Cmax ([3]; male, CD-1, mouse, oral 5 mg/kg, brain, read-out: Cmax): 602 ± 44.8 ng/g
bioavailability ([3]; male, CD-1, mouse, oral 5 mg/kg, brain, read-out: F (apparent oral bioavailability)): 43%
Tmax [3, 12]: 0.75 ± 0.15 h
half-life [3, 12]: 16.7 ± 1.61 h
Cmax ([3]; male, CD-1, mouse, oral 5 mg/kg, kidney, read-out: Cmax): 795 ± 22.6 ng/g
bioavailability ([3]; male, CD-1, mouse, oral 5 mg/kg, kidney, read-out: F (apparent oral bioavailability)): 37 ± 3.78%
Tmax [3, 13]: 0.75 ± 0.15 h
half-life [3, 13]: 13 ± 0.97 h
Cmax ([3]; male, CD-1, mouse, oral 5 mg/kg, liver, read-out: Cmax): 1890 ± 282 ng/g
bioavailability ([3]; male, CD-1, mouse, oral 5 mg/kg, liver, read-out: F (apparent oral bioavailability)): 32 ± 2.86%
AUC(0-inf) [3, 14]: 739 ± 6.75 ng·h/mL
Tmax [3, 14]: 0.88 ± 0.13 h
half-life [3, 14]: 16.4 ± 1.66 h
Cmax ([3]; male, CD-1, mouse, oral 5 mg/kg, plasma, read-out: Cmax): 198 ± 11.5 ng/mL
bioavailability ([3]; male, CD-1, mouse, oral 5 mg/kg, plasma, read-out: F (bioavailability)): 18 ± 2.43%
AUC0-∞ ([3]; oral 5 mg/kg, kidney): 5223 ± 44.75 ng·h/g and 5223 ng·h/g
AUC0-∞ ([3]; oral 5 mg/kg, liver): 6423 ± 571 ng·h/g and 6423 ng·h/g
tolerance under physiological pH [4]: better tolerance
number writhes per 5 min ([5]; FIG. 3A, 4k 5 mg/kg versus vehicle): lower
total frequency of writhes over the entire experiment ([5]; FIG. 3B, 30 min): lowest
writhing over 30 minutes ([5]; oxycodone 3 mg/kg, compound 4k 5 mg/kg, versus vehicle): attenuate writhing; also recorded: significantly less writhing
place preference (rewarding effect, abuse liability) [6]: no significant rewarding effects; also recorded: no such preference

Cc1c(/C=N/N=C2/Nc3ccccc3C(=O)N3CCC[C@@H]23)sc2ccccc12 [Compound 4l]
Displacement of [3H]CP-55,940 from CB1 [1]: 77.17%
Displacement of [3H]CP-55,940 from CB2 [2]: 51.73%

O=C1c2ccccc2N/C(=N/N=C/c2sc3ccccc3c2Cl)[C@@H]2CCCN12 [Compound 4m]
Displacement of [3H]CP-55,940 from CB1 [1]: 5.22%
Displacement of [3H]CP-55,940 from CB2 [2]: 50.05%
